Test results from ChEMBL document CHEMBL1201862, “PubChem BioAssay data set” (2004).
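Dose response: 5 concentrations. Exposure: 48 h. Format: 96-well plates. Endpoint: linear interpolation; highest concentration if not reached. Abbreviation: GI50, concentration required for 50% inhibition of growth.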 Calls of active or inactive are those of the source. Cut-off read from the data, not from the text of the source: active = GI50 up to about 1.1 µM and inactive = higher.

Columns and labels:
Test in all cases: growth of human tumour cells (NCI), 48 h
CCRF-CEM = tested on: CCRF-CEM
DU-145 = tested on: DU-145
EKVX = tested on: EKVX
HCT-116 = tested on: HCT-116
HL-60 = tested on: HL-60
IGROV-1 = tested on: IGROV-1
LOX IMVI = tested on: LOX IMVI
MDA-MB-435 = tested on: MDA-MB-435
NCI-H226 = tested on: NCI-H226
NCI-H522 = tested on: NCI-H522
NCI/ADR-RES = tested on: NCI/ADR-RES
OVCAR-5 = tested on: OVCAR-5
OVCAR-8 = tested on: OVCAR-8
PC-3 = tested on: PC-3
SF-295 = tested on: SF-295
SNB-75 = tested on: SNB-75
SW-620 = tested on: SW-620
T47D = tested on: T47D
U-251 = tested on: U-251

Measured: GI50

O=C(O)c1cc(CCc2cc(O)ccc2O)ccc1O
inactive: CCRF-CEM 26.9 µM | DU-145 > 100 µM | EKVX > 100 µM | HCT-116 > 100 µM | HL-60 30.6 µM | IGROV-1 > 100 µM | LOX IMVI 32.1 µM | MDA-MB-435 > 100 µM | NCI-H226 > 100 µM | NCI-H522 > 100 µM | NCI/ADR-RES > 100 µM | OVCAR-5 > 100 µM | OVCAR-8 > 100 µM | PC-3 > 100 µM | SF-295 > 100 µM | SNB-75 > 100 µM | SW-620 39.2 µM | T47D > 100 µM | U-251 > 100 µM

COc1nc(OC)nc(-c2cccc(F)c2)n1
inactive: CCRF-CEM 9.2 µM | DU-145 13.2 µM | EKVX 4.6 µM | HCT-116 16.7 µM | HL-60 24.3 µM | IGROV-1 16.1 µM | LOX IMVI 17 µM | MDA-MB-435 15 µM | NCI-H226 13.4 µM | NCI-H522 18.7 µM | NCI/ADR-RES 14.3 µM | OVCAR-5 11.5 µM | OVCAR-8 23.4 µM | PC-3 19.3 µM | SF-295 13.4 µM | SNB-75 21.2 µM | SW-620 17.7 µM | T47D 13.2 µM | U-251 15.7 µM

Cc1c2c(c(C)n1-c1ccccc1)C(=O)N(CCCCN1CCN(c3ccccc3)CC1)C2=O
inactive: CCRF-CEM 7.21 µM | DU-145 19 µM | EKVX 10 µM | HCT-116 7.71 µM | HL-60 5.5 µM | IGROV-1 15.1 µM | LOX IMVI 10 µM | MDA-MB-435 8.05 µM | NCI-H226 9.68 µM | NCI-H522 12.9 µM | NCI/ADR-RES 17 µM | OVCAR-5 49.3 µM | OVCAR-8 14.2 µM | PC-3 6.82 µM | SF-295 14.6 µM | SNB-75 6.89 µM | SW-620 18.9 µM | T47D 3.49 µM | U-251 14.5 µM

COc1ccc(CC(N)c2ccc(OC)cc2)cc1 (stereo not given)
inactive: CCRF-CEM 70.5 µM | DU-145 > 100 µM | EKVX > 100 µM | HCT-116 92.9 µM | HL-60 49.7 µM | IGROV-1 66.7 µM | LOX IMVI 57.5 µM | MDA-MB-435 37.2 µM | NCI-H226 76.2 µM | NCI-H522 > 100 µM | NCI/ADR-RES > 100 µM | OVCAR-5 > 100 µM | OVCAR-8 > 100 µM | PC-3 42.8 µM | SF-295 > 100 µM | SNB-75 77.1 µM | SW-620 > 100 µM | T47D 46.3 µM | U-251 95.3 µM

COc1ccc2nc3ccc(OC)cc3c(SCc3ccc([N+](=O)[O-])cc3)c2c1
inactive: CCRF-CEM > 100 µM | DU-145 > 100 µM | EKVX > 100 µM | HCT-116 70.3 µM | HL-60 > 100 µM | IGROV-1 63.5 µM | LOX IMVI > 100 µM | MDA-MB-435 > 100 µM | NCI-H226 42.8 µM | NCI-H522 17.3 µM | NCI/ADR-RES 67 µM | OVCAR-5 > 100 µM | OVCAR-8 52.7 µM | PC-3 68.2 µM | SF-295 31.5 µM | SNB-75 37.1 µM | SW-620 > 100 µM | T47D > 100 µM | U-251 > 10 µM

CCOC(=O)C1C(C(C)C)C2(C#N)C(=N)OC1(C)C2(C#N)C#N (stereo not given)
inactive: CCRF-CEM 47 µM | DU-145 > 100 µM | EKVX 78.3 µM | HCT-116 56 µM | HL-60 30 µM | IGROV-1 88.3 µM | LOX IMVI 43.3 µM | MDA-MB-435 35.3 µM | NCI-H226 56.4 µM | NCI-H522 26 µM | NCI/ADR-RES 45.5 µM | OVCAR-5 > 100 µM | OVCAR-8 > 100 µM | PC-3 > 100 µM | SF-295 > 100 µM | SNB-75 13.3 µM | SW-620 62.1 µM | T47D 49.7 µM | U-251 82.4 µM

O=C(OC1OC2COC(=O)c3cc(O)c(O)c(O)c3-c3c(cc(O)c(O)c3O)C(=O)OC3C2OC(=O)[C@@]24CC(=O)[C@@](O)(OC25C(=O)O[C@H]2[C@@H](O)CO[C@@]25O)C2(O)Oc5c(O)c(O)cc(c5C24)C(=O)OC13)c1cc(O)c(O)c(O)c1 (stereo not given in full)
inactive: CCRF-CEM 26.7 µM | DU-145 44.7 µM | EKVX 34.8 µM | HCT-116 36.9 µM | HL-60 21.2 µM | IGROV-1 75.9 µM | LOX IMVI 12.6 µM | MDA-MB-435 17.2 µM | NCI-H226 90.4 µM | NCI-H522 19.5 µM | NCI/ADR-RES 29.2 µM | OVCAR-5 47.2 µM | OVCAR-8 37.1 µM | PC-3 42.3 µM | SF-295 44 µM | SNB-75 34 µM | SW-620 41.2 µM | T47D 74 µM | U-251 39.6 µM

Cc1cc2c3ccccc3[nH]c2c2ccnc(C)c12
inactive: CCRF-CEM 2.29 µM | DU-145 6.47 µM | EKVX 1.49 µM | HCT-116 2.21 µM | HL-60 2.07 µM | IGROV-1 15.2 µM | LOX IMVI 2.15 µM | MDA-MB-435 1.65 µM | NCI-H226 13.4 µM | NCI-H522 2.65 µM | NCI/ADR-RES 14.7 µM | OVCAR-5 7.36 µM | OVCAR-8 8.69 µM | PC-3 10.2 µM | SF-295 20 µM | SNB-75 7.28 µM | SW-620 2.47 µM | T47D 16.7 µM | U-251 2.24 µM

O=C(c1cccnc1)N1N=C(c2ccc(Cl)cc2)CC1(O)c1cc(F)c(Cl)cc1Cl (stereo not given)
inactive: CCRF-CEM 13.3 µM | DU-145 16.9 µM | EKVX 17.5 µM | HCT-116 8.3 µM | HL-60 15.1 µM | IGROV-1 1.65 µM | LOX IMVI 15.1 µM | MDA-MB-435 15.9 µM | NCI-H226 11.6 µM | NCI-H522 19.5 µM | NCI/ADR-RES 16 µM | OVCAR-5 33.7 µM | OVCAR-8 25.1 µM | PC-3 12.9 µM | SF-295 19.5 µM | SNB-75 5.7 µM | SW-620 22.2 µM | T47D 2.39 µM | U-251 14.3 µM

CCC(C)C1(O)OC2CC3(C)OC(=CC3=O)/C(C)=C\C3OC(=O)C1(C)C32 (stereo not given)
inactive: CCRF-CEM 4.83 µM | DU-145 4.68 µM | EKVX 12.7 µM | HCT-116 6.47 µM | HL-60 3.12 µM | IGROV-1 18.8 µM | LOX IMVI 14.7 µM | MDA-MB-435 11.9 µM | NCI-H226 25.9 µM | NCI-H522 3.92 µM | NCI/ADR-RES 17.2 µM | OVCAR-5 28.3 µM | OVCAR-8 16 µM | PC-3 37.2 µM | SF-295 20.5 µM | SNB-75 37.2 µM | SW-620 3.37 µM | T47D 15 µM | U-251 27.5 µM
